Measurements: patent US8518872B2, “Methods of using (+)-1,4-dihydro-7-[(3S,4S)-3-methoxy-4-(methylamino)-1-pyrrolidinyl]-4-OXO-1-(2-thiazolyl)-1,8-naphthyridine-3-carboxylic acid in combination therapy” (Sunesis Pharmaceuticals, Inc., priority 2007, dated 2013)
Several values for one entry are separate records, joined by “and”; a condition that tells them apart may be missing. Identical values can stand only once.

How the values were obtained:
[1] = system: subcutaneous H460 (non-small cell lung carcinoma); assay: SNS-595 and carboplatin in non-small cell lung carcinoma H460 xenograft model; assay type: in vivo, athymic nude mice; settings: SNS-595 10 mg/kg IV qw x5, carboplatin 75 mg/kg IP qw x3, combination of both
Description: The effect of co-administration of SNS-595 and carboplatin was observed on the growth of non-small cell lung carcinoma, athymic nude mice bearing subcutaneous H460. The mice were treated with SNS-595, carboplatin or the two in combination as indicated below.

[2] = system: subcutaneous A2780 xenografts (ovarian carcinoma); assay: SNS-595 and cisplatin in ovarian carcinoma A2780 xenograft model; settings: SNS-595 10 mg/kg IV qw x3, cisplatin 5 mg/kg IP qw x3, combination of both
Description: The effect of co-administration of SNS-595 and cisplatin was observed on the growth of ovarian carcinoma studied in athymic nude mice bearing subcutaneous A2780 xenografts. The mice were treated with SNS-595, cisplatin or the two in combination as indicated below.
Animal treatment was initiated when mean tumor volume was 200 mm^3. The combination was co-dosed once a week for three weeks. Tumor volumes and animal body weight were measured twice weekly.

[3] = system: subcutaneous BxPC-3 xenografts (pancreatic carcinoma); assay: SNS-595 and gemcitabine in pancreatic carcinoma BxPC-3 xenograft model; assay type: in vivo, NIH-III mice; settings: SNS-595 15 mg/kg IV qw x3, gemcitabine 65 mg/kg IP biw x3; for BW Nadir: BxPC-3 xenograft mice; for BW Nadir / % Tumor Growth Inhibition (Day 38) / BW Nadir (Day of): combination of both; for BW Nadir (Day of): day of body weight nadir
Description: SNS-595 was administered once a week and gemcitabine was twice weekly for two weeks followed by one additional dose as indicated above with the combination being co-dosed. Tumor volume and animal body weight was measured at least once weekly. SNS-595 was administered once a week and gemcitabine was twice weekly for two weeks followed by one additional dose as indicated above with the combination being co-dosed. Tumor volume and animal body weight was measured at least once weekly.

[4] = system: subcutaneous H460 xenografts (non-small cell lung carcinoma); assay: SNS-595 and gemcitabine in non-small cell lung carcinoma H460 xenograft model; assay type: in vivo, athymic nude mice; settings: SNS-595 10 mg/kg IV qw x3, gemcitabine 75 mg/kg IP biw x2, combination of both; for BW Nadir: H460 xenograft mice; for BW Nadir (Day of): day of body weight nadir
Description: The effect of co-administration of SNS-595 and gemcitabine on the growth of non-small cell lung carcinoma, athymic nude mice bearing subcutaneous H460 xenografts were treated with SNS-595, gemcitabine or the two in combination as indicated below.
SNS-595 was administered once a week and gemcitabine was twice weekly as indicated above with the combination being co-dosed. In the vehicle group, the gemcitabine vehicle was administered 24 hours after the SNS-595 vehicle representing additional treatment arms in the experiment. Tumor volume and animal body weight was measured at least twice weekly.

[5] = Solubility of SNS-595 in acidic compositions; assay type: physicochemical; settings: acidic compositions (<pH 4)
Description: An illustrative example of a suitable composition comprises: 10 mg SNS-595 per mL of aqueous solution of 4.5% sorbitol that is adjusted to pH 2.5 with methanesulfonic acid. One protocol for making such a solution includes the following for making a 100 mg/10 mL presentation: 100 mg of SNS-595 and 450 mg D-sorbitol are added to distilled water; the volume is brought up to a volume of 10 mL; and the pH of the resulting solution is adjusted to 2.5 with methanesulfonic acid. The resulting composition is also suitable for lyophilization. The lyophilized form is then reconstituted with sterile water to the appropriate concentration prior to use.

Row | BW Nadir [3] | BW Nadir (Day of) [3] | BW Nadir [4] | BW Nadir (Day of) [4] | Compound | % Tumor Growth Inhibition (Day 16) [1] | Tumor Growth Delay [1] | % Tumor Growth Inhibition (Day 11) [2] | Tumor Growth Delay [2] | % Tumor Growth Inhibition (Day 38) [3] | Tumor Growth Delay [3] | % Tumor Growth Inhibition (Day 11) [4] | Tumor Growth Delay [4] | other results
1 | – | – | – | – | N.N.O=C([O-])C1(C(=O)[O-])CCC1.[Pt+2] [Carboplatin, carboplatin] | 31.6% | 12.5 days | – | – | – | – | – | – | % Tumor Growth Inhibition (Day 16) ([1]; listed as carboplatin): 32%; BW Nadir ([1]; H460 xenograft mice): −2.8%; BW Nadir (Day of) ([1]; day of body weight nadir): (Day 16)
2 | – | – | – | – | N.N.[Cl][Pt][Cl] [Cisplatin, cisplatin] | – | – | 49.0% | 11.0 days | – | – | – | – | BW Nadir ([2]; A2780 xenograft mice): −10.9%; % Tumor Growth Inhibition (Day 11) ([2]; listed as cisplatin): 49%; BW Nadir (Day of) ([2]; day of body weight nadir): (Day 11)
3 | 0% | (Day 0) | −7.4% | (Day 11) | Nc1ccn([C@@H]2O[C@H](CO)[C@@H](O)C2(F)F)c(=O)n1 [Gemcitabine, gemcitabine] | – | – | – | – | 20.2% | 12.5 days | 36.6% | 5.0 days | % Tumor Growth Inhibition (Day 38) ([3]; listed as gemcitabine): 20%; % Tumor Growth Inhibition (Day 11) ([4]; listed as gemcitabine): 37%
4 | −2.5% | (Day 11) | −5.9% | (Day 11) | CN[C@H]1CN(c2ccc3c(=O)c(C(=O)O)cn(-c4nccs4)c3n2)C[C@@H]1OC [SNS-595, (+)-1,4-dihydro-7-[(3S,4S)-3-methoxy-4-(methylamino)-1-pyrrolidinyl]-4-oxo-1-(2-thiazolyl)-1,8-naphthyridine-3-carboxylic acid] | 53% and 53.2% | 23.0 days | 21.7% | 5.5 days | 26% and 25.9% | 23.0 days | 62% and 61.9% | 11.0 days | solubility [5]: increased solubility
